Results on 18 molecules are retold here after patent US7517874B2 (priority 2007, dated 2009).

Read-outs that look alike come from different tables or passages of the source. Bounds are passed on as bounds.

For test [1], the target named is human CB1 receptor (hCB1) (Homo sapiens, UniProt P21554). Nature of the test: cell-based. Format: cell-based. The conditions noted are these: for +/− HCB1: agonist or inverse agonist at hCB1. In a few lines: (§1)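 Agonism or inverse agonism was assessed as change in intracellular cAMP in CHO-K1 cells expressing human CB1 or rat CB2 (genomic DNA, pcDNA3.1).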
Chain of human CB1 receptor (hCB1) (P21554 whole entry): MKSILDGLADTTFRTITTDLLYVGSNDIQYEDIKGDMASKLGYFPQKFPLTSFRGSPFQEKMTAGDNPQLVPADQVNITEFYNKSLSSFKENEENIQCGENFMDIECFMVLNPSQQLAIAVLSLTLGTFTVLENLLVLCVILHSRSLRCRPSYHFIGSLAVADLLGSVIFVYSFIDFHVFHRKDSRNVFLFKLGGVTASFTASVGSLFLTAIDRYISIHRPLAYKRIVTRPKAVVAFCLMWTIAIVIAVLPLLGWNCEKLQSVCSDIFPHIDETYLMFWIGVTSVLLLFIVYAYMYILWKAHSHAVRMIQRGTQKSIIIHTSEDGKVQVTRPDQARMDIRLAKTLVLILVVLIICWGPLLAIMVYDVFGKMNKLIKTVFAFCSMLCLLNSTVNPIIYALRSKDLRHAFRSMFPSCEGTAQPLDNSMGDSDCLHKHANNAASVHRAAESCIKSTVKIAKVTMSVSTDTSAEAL
The next test addresses T1, rat CB2 receptor (rCB2) (Rattus norvegicus, UniProt Q9QZN9).
T1 sequence (Q9QZN9 1-360): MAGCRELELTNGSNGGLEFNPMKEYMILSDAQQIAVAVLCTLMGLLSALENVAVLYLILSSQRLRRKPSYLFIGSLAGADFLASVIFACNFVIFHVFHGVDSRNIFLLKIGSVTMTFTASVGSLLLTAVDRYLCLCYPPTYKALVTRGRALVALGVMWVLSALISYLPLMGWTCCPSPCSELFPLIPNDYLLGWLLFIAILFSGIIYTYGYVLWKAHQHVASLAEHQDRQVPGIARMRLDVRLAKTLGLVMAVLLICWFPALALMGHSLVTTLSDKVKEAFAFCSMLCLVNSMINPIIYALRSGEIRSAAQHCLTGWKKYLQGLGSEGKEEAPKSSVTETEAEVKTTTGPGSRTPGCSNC
Nature of the test: cell-based. The conditions noted are these: for +/− RCB2: agonist or inverse agonist at rCB2. In kind it is cell-based. The method in brief:
as §1

[2] abbreviates: groups >100 nM-10 μM and >10 μM, cAMP, CHO-K1 hCB1, read-out: EC50 HCB1.

Consider `CNC(=O)[C@@H](NC(=O)c1nc(-c2cccc(F)c2F)n2c1CN(C)CCC2)C(C)(C)C` [Compound 369, (S)-3-(2,3-difluorophenyl)-N-(3,3-dimethyl-1-(methylamino)-1-oxobutan-2-yl)-8-methyl-6,7,8,9-tetrahydro-5H-imidazo[1,5-a][1,4]diazepine-1-carboxamide], for which the EC50 in test [1] was greater than 10000 nM. In addition, the “+/− RCB2” value on rat CB2 receptor (rCB2) is listed as “+”.

For the molecule `CC12CCC(C1)C(C)(C)C2NC(=O)c1nc(-c2ccccc2)n2c1CN(C(=O)c1ccco1)CC2` (stereo not drawn) [Compound 122, 7-(furan-2-carbonyl)-3-phenyl-N-(1,3,3-trimethylbicyclo[2.2.1]heptan-2-yl)-5,6,7,8-tetrahydroimidazo[1,5-a]pyrazine-1-carboxamide], in test [1] (setting [2]), the EC50 is greater than 10000 nM. Also, the “+/− RCB2” value at rat CB2 receptor (rCB2) is “−”.

Turning to `CNC(=O)[C@@H](NC(=O)c1nc(C2=CCC3(CC2)OCCO3)n2c1CN(C)CCC2)C(C)(C)C` [Compound 448, (S)-N-(3,3-dimethyl-1-(methylamino)-1-oxobutan-2-yl)-8-methyl-3-(1,4-dioxaspiro[4.5]dec-7-en-8-yl)-6,7,8,9-tetrahydro-5H-imidazo[1,5-a][1,4]diazepine-1-carboxamide], the “+/− HCB1” value in test [1] is listed as “+”. Also, at rat CB2 receptor (rCB2), the “+/− RCB2” value is on record as “+”.

On to `CC(C)(C)OC(=O)N1CCn2c(-c3ccccc3)nc(C(=O)NC3CCCCC3)c2C1` [Compound 36, tert-butyl 1-(cyclohexylcarbamoyl)-3-phenyl-5,6-dihydroimidazo[1,5-a]pyrazine-7(8H)-carboxylate], for which the EC50 in test [1] is greater than 10000 nM. Also, at rat CB2 receptor (rCB2), the “+/− RCB2” value is “−”.

As to `CNC(=O)[C@@H](NC(=O)c1nc(/C=C/Cc2ccccc2)n2c1CN(C)CCC2)C(C)(C)C` [Compound 458, (S,E)-N-(3,3-dimethyl-1-(methylamino)-1-oxobutan-2-yl)-8-methyl-3-(3-phenylprop-1-enyl)-6,7,8,9-tetrahydro-5H-imidazo[1,5-a][1,4]diazepine-1-carboxamide], the “+/− HCB1” value in test [1] is listed as “+”. In addition, the “+/− RCB2” value on rat CB2 receptor (rCB2) is “−”.

For `CNC(=O)[C@@H](NC(=O)c1nc(-c2ccc(C(N)=O)c(F)c2)n2c1CN(C)CCC2)C(C)(C)C` [Compound 427, (S)-3-(4-carbamoyl-3-fluorophenyl)-N-(3,3-dimethyl-1-(methylamino)-1-oxobutan-2-yl)-8-methyl-6,7,8,9-tetrahydro-5H-imidazo[1,5-a][1,4]diazepine-1-carboxamide], the EC50 is greater than 10000 nM in test [1] and greater than 10 µM at rat CB2 receptor (rCB2).

In test [1], `CC(C)(C)[C@@H](CO)NC(=O)c1nc(-c2ccccc2)n2c1CN(S(=O)(=O)c1ccccc1)CC2` [Compound 102, (S)-N-(1-hydroxy-3,3-dimethylbutan-2-yl)-3-phenyl-7-(phenylsulfonyl)-5,6,7,8-tetrahydroimidazo[1,5-a]pyrazine-1-carboxamide] showed an EC50 greater than 10000 nM. Besides, at rat CB2 receptor (rCB2), the “+/− RCB2” value was “−”.

Turning to `CNC(=O)[C@@H](NC(=O)c1nc(-c2ccc(F)cc2F)n2c1CN(C)CCC2)C(C)(C)C` [Compound 355, (S)-3-(2,4-difluorophenyl)-N-(3,3-dimethyl-1-(methylamino)-1-oxobutan-2-yl)-8-methyl-6,7,8,9-tetrahydro-5H-imidazo[1,5-a][1,4]diazepine-1-carboxamide], the “+/− HCB1” value in test [1] is given as “+”. Further, the “+/− RCB2” value on rat CB2 receptor (rCB2) is “+”.

Consider `CNC(=O)[C@@H](NC(=O)c1nc(-c2ccccc2)n2c1CN(C(=O)c1ccco1)CC2)C(C)(C)C` [Compound 128, (S)-N-(3,3-dimethyl-1-(methylamino)-1-oxobutan-2-yl)-7-(furan-2-carbonyl)-3-phenyl-5,6,7,8-tetrahydroimidazo[1,5-a]pyrazine-1-carboxamide], for which the EC50 in test [1] is greater than 10000 nM. The “+/− RCB2” value at rat CB2 receptor (rCB2) is given as “−”.

`CNC(=O)[C@@H](NC(=O)c1nc(-c2ccc(C(F)(F)F)cc2)n2c1CNCC2)C(C)(C)C` [Compound 5, (S)-N-(3,3-dimethyl-1-(methylamino)-1-oxobutan-2-yl)-3-(4-(trifluoromethyl)phenyl)-5,6,7,8-tetrahydroimidazo[1,5-a]pyrazine-1-carboxamide] showed a concentration giving a half-maximal response (EC50) in test [1] greater than 10000 nM. Moreover, the “+/− RCB2” value on rat CB2 receptor (rCB2) was “−”.

For the molecule `CNC(=O)[C@@H](NC(=O)c1nc(-c2ccc(C(F)(F)F)cc2F)n2c1CN(C)CCC2)C(C)(C)C` [Compound 368, (S)-N-(3,3-dimethyl-1-(methylamino)-1-oxobutan-2-yl)-3-(2-fluoro-4-(trifluoromethyl)phenyl)-8-methyl-6,7,8,9-tetrahydro-5H-imidazo[1,5-a][1,4]diazepine-1-carboxamide], the “+/− HCB1” value in test [1] is “+”. The “+/− RCB2” value at rat CB2 receptor (rCB2) was “+”.

With `CNC(=O)[C@@H](NC(=O)c1nc(C2=CCCCCC2)n2c1CN(C)CCC2)C(C)(C)C` [Compound 457, (S,E)-3-cycloheptenyl-N-(3,3-dimethyl-1-(methylamino)-1-oxobutan-2-yl)-8-methyl-6,7,8,9-tetrahydro-5H-imidazo[1,5-a][1,4]diazepine-1-carboxamide], the EC50 in test [1] is greater than 10000 nM. Moreover, on rat CB2 receptor (rCB2), the “+/− RCB2” value is “−”.

Consider `CN1CCCn2c(-c3ccc(F)c(Cl)c3)nc(C(=O)N[C@H](C(=O)N(C)C)C(C)(C)C)c2C1` [Compound 558, (S)-3-(3-chloro-4-fluorophenyl)-N-(1-(dimethylamino)-3,3-dimethyl-1-oxobutan-2-yl)-8-methyl-6,7,8,9-tetrahydro-5H-imidazo[1,5-a][1,4]diazepine-1-carboxamide], for which the “+/− HCB1” value in test [1] is listed as “+”. Besides, the “+/− RCB2” value on rat CB2 receptor (rCB2) is on record as “+”.

On to `CNC(=O)[C@@H](NC(=O)c1nc(-c2ccccc2)n2c1CN(CC(C)C)CCC2)C(C)(C)C` [Compound 320, (S)-N-(3,3-dimethyl-1-(methylamino)-1-oxobutan-2-yl)-8-isobutyl-3-phenyl-6,7,8,9-tetrahydro-5H-imidazo[1,5-a][1,4]diazepine-1-carboxamide], for which, in test [1], the EC50 was greater than 10000 nM. Moreover, at rat CB2 receptor (rCB2), the “+/− RCB2” value is “−”.

The molecule `CNC(=O)[C@@H](NC(=O)c1nc(-c2ccccc2C(F)(F)F)n2c1CN(C)CC2)C(C)(C)C` [Compound 255, (S)-N-(3,3-dimethyl-1-(methylamino)-1-oxobutan-2-yl)-7-methyl-3-(2-(trifluoromethyl)phenyl)-5,6,7,8-tetrahydroimidazo[1,5-a]pyrazine-1-carboxamide] came in with an EC50 in test [1] greater than 10000 nM. Also, on rat CB2 receptor (rCB2), the “+/− RCB2” value is “+”.

Consider `O=C(NCC1CCOCC1)c1nc(-c2ccccc2)n2c1CN(C(=O)C1CC1)CC2` [Compound 134, 7-(cyclopropanecarbonyl)-3-phenyl-N-((tetrahydro-2H-pyran-4-yl)methyl)-5,6,7,8-tetrahydroimidazo[1,5-a]pyrazine-1-carboxamide], for which the half-maximal effective concentration (EC50) in test [1] (setting [2]) was greater than 10000 nM. For the same molecule, at rat CB2 receptor (rCB2), the “+/− RCB2” value is recorded as “−”.

Take `CNC(=O)[C@@H](NC(=O)c1nc(-c2ccccc2)n2c1CN(CC1CC1)CC2)C(C)(C)C` [Compound 56, (S)-7-(cyclopropylmethyl)-N-(3,3-dimethyl-1-(methylamino)-1-oxobutan-2-yl)-3-phenyl-5,6,7,8-tetrahydroimidazo[1,5-a]pyrazine-1-carboxamide]: in test [1], the EC50 is greater than 10000 nM. The “+/− RCB2” value on rat CB2 receptor (rCB2) is given as “−”.

In the case of `Cc1noc([C@@H](NC(=O)c2nc(-c3ccccc3)n3c2CN(CC2CC2)CC3)C(C)(C)C)n1` [Compound 88, (S)-7-(cyclopropylmethyl)-N-(2,2-dimethyl-1-(3-methyl-1,2,4-oxadiazol-5-yl)propyl)-3-phenyl-5,6,7,8-tetrahydroimidazo[1,5-a]pyrazine-1-carboxamide], the EC50 in test [1] is greater than 10000 nM. Besides, the “+/− RCB2” value at rat CB2 receptor (rCB2) is reported as “−”.
